Test system: chemically-induced spontaneous pain evoked by intraplantar injection of formalin
Assay: Formalin test (model of acute tonic pain)
Assay type: in vivo
Conditions: rat; for pain intensity as evaluated by the flinching or licking behaviors: s.c. 30 min prior to formalin injection; for ED50: sc, s.c. 30 min prior to formalin, licking and biting episodes in phase IIa, read-out: ED50, effective dose where the pain score is reduced by half
From the text: Model of Acute Tonic Pain
This example describes a procedure for the in vivo assessment of the inhibitory activity of the compounds of the present invention.
A number of well-established models of pain are described in the literature and are known to the skilled in the art (see, for example, Table 1). This example describes the use of the Formalin test.
Male Sprague-Dawley rats are housed together in groups of three animals under standard conditions with unrestricted access to food and water. All experiments are conducted according to the ethical guidelines for investigations of experimental pain in conscious animals (Zimmerman, 1983)
Assessment of formalin-induced flinching behavior in normal, uninjured rats (body weight 150-180 g) is made with the use of an Automated Nociception Analyser (University of California, San Diego, USA). Briefly, this involves placing a small C-shaped metal band (10 mm wide×27 mm long) on the hindpaw of the rat to be tested. The rats (four rats are included in each testing session) are then placed in a cylindrical plexiglass observation chamber (diameter 30.5 cm and height 15 cm) for 20 min for adaptation purposes prior to being administered drug or vehicle according to the experimental paradigm being followed. […] Rats are then returned to their separate observation chambers, each of which are in turn situated upon an enclosed detection device consisting of two electromagnetic coils designed to produce an electromagnetic field in which movement of the metal band could be detected. […] A sampling interval of 1 min is used and on the basis of the resulting response patterns 5 phases of nociceptive behaviour are identified and scored: first phase (P1; 0-5 min), interphase (Int; 6-15 min), second phase (P2; […]), phase 2A (P2A; 16-40 min) and phase 2B (P2B; 41-60 min).
Nociceptive behavior is also determined manually every 5 min by measuring the amount of time spent in each of four behavioral categories: 0, treatment of the injected hindpaw is indistinguishable from that of the contralateral paw; 1, the injected paw has little or no weight placed on it; 2, the injected paw is elevated and is not in contact with any surface; 3, the injected paw is licked, bitten, or shaken. A weighted nociceptive score, ranging from 0 to 3 is calculated by multiplying the time spent in each category by the category weight, summing these products, and dividing by the total time for each 5 min block of time. […] On the basis of the resulting response patterns, […] of nociceptive behavior are identified and scored: first phase (P1; 0-5 min), interphase (Int; 6-15 min), second phase (P2; […]), phase 2A (P2A; 16-40 min) and phase 2B (P2B; 41-60 min). […]

SMILES	pain intensity as evaluated by the flinching or licking behaviors	ED50 [mg/kg]
CCN1CCc2c(-c3cc(Cl)ccc3OC)cc(C#N)c(N)c2C1 [Compound 44]	dose-dependent reduction	22
CCN1CCc2c(-c3ccccc3)cc(C#N)c(N)c2C1 [Compound 12, 8-Amino-2-ethyl-5-phenyl-1,2,3,4-tetrahydro-isoquinoline-7-carbonitrile]	dose-dependent reduction	4
